The values that follow are results of earlier work, collected in US10640830B2, “Drug selection for non-small cell lung cancer therapy” (NESTEC S.A., priority 2013, dated 2020).

Each structure is given as a SMILES string.

The conditions of series [1]: in vivo.
For series [2] the following is noted: early Phase I evaluation.
The test system of a further series is human xenograft models. Conditions: dosed orally in human xenograft models. (In general: In xenograft studies the graft and the host belong to different species.)

In the case of `COc1cc2c(Oc3ccc(NC(=O)C4(C(=O)Nc5ccc(F)cc5)CC4)cc3F)ccnc2cc1OCCCN1CCOCC1` [GSK 1363089/XL880], in the series with CYP450, the “CYP450 substrate / inhibitor / inducer” value is recorded as “CYP450 substrate, but not an inhibitor or inducer”. Also, the oral bioavailability result in series [1] was “good oral bioavailability”.

Take `CN(C[C@@H]1COCCO1)S(=O)(=O)Nc1ccc2ccc3ncc(-c4cnn(C)c4)cc3c(=O)c2c1` [MK-2461]: the tolerability result in series [2] is listed as “well tolerated”.

As to `Cn1cc(-c2ccc3nnc(Sc4ccc5ncccc5c4)n3n2)cn1` [SGX523], in the series with human xenograft models, the antitumor activity entry is recorded as “potent antitumor activity” and the toxicity entry is “no overt toxicity”.
